Laboratory results from PubChem BioAssay AID1259407 (Chemical Carcinogenesis Research Information System (CCRIS), 2018).
Activity calls are given as the source filed them. No rule for the calls is given here.

System: CCRIS mutagenicity, Ames/micronucleus/aberration tests
Test: CCRIS mutagenicity studies
[1] = Test System: AMES SALMONELLA TYPHIMURIUM, Strain/Indicator: TA98, Metabolic Activation: NONE, Method: PREINCUBATION
[2] = Test System: AMES SALMONELLA TYPHIMURIUM, Strain/Indicator: TA98, Metabolic Activation: NONE, Method: STANDARD PLATE
[3] = Test System: AMES SALMONELLA TYPHIMURIUM, Strain/Indicator: TA98, Metabolic Activation: RAT, LIVER, S-9, AROCLOR 1254, Method: STANDARD PLATE
[4] = Test System: AMES SALMONELLA TYPHIMURIUM, Strain/Indicator: TA100, Metabolic Activation: NONE, Method: PREINCUBATION
[5] = Test System: AMES SALMONELLA TYPHIMURIUM, Strain/Indicator: TA100, Metabolic Activation: NONE, Method: STANDARD PLATE
[6] = Test System: AMES SALMONELLA TYPHIMURIUM, Strain/Indicator: TA100, Metabolic Activation: RAT, LIVER, S-9, AROCLOR 1254, Method: STANDARD PLATE
[7] = Test System: AMES SALMONELLA TYPHIMURIUM, Strain/Indicator: TA1535, Metabolic Activation: NONE, Method: PREINCUBATION
[8] = Test System: AMES SALMONELLA TYPHIMURIUM, Strain/Indicator: TA1535, Metabolic Activation: NONE, Method: STANDARD PLATE
[9] = Test System: AMES SALMONELLA TYPHIMURIUM, Strain/Indicator: TA1535, Metabolic Activation: RAT, LIVER, S-9, AROCLOR 1254, Method: STANDARD PLATE
[10] = Test System: AMES SALMONELLA TYPHIMURIUM, Strain/Indicator: TA1537, Metabolic Activation: NONE, Method: PREINCUBATION
[11] = Test System: AMES SALMONELLA TYPHIMURIUM, Strain/Indicator: TA1537, Metabolic Activation: NONE, Method: STANDARD PLATE
[12] = Test System: AMES SALMONELLA TYPHIMURIUM, Strain/Indicator: TA1537, Metabolic Activation: RAT, LIVER, S-9, AROCLOR 1254, Method: STANDARD PLATE
[13] = Test System: AMES SALMONELLA TYPHIMURIUM, Strain/Indicator: TA1538, Metabolic Activation: NONE, Method: PREINCUBATION

Fc1c(F)c(F)c(Cl)c(F)c1F
mutagenic call [1]: inactive; negative
mutagenic call [2]: inactive; negative
mutagenic call (Test System: AMES SALMONELLA TYPHIMURIUM, Strain/Indicator: TA98, Metabolic Activation: RAT, LIVER, S-9, AROCLOR 1254, Method: PREINCUBATION): inactive; negative
mutagenic call [3]: inactive; negative
mutagenic call [4]: inactive; negative
mutagenic call [5]: inactive; negative
mutagenic call (Test System: AMES SALMONELLA TYPHIMURIUM, Strain/Indicator: TA100, Metabolic Activation: RAT, LIVER, S-9, AROCLOR 1254, Method: PREINCUBATION): inactive; negative
mutagenic call [6]: inactive; negative
mutagenic call [7]: inactive; negative
mutagenic call [8]: inactive; negative
mutagenic call (Test System: AMES SALMONELLA TYPHIMURIUM, Strain/Indicator: TA1535, Metabolic Activation: RAT, LIVER, S-9, AROCLOR 1254, Method: PREINCUBATION): inactive; negative
mutagenic call [9]: inactive; negative
mutagenic call [10]: inactive; negative
mutagenic call [11]: inactive; negative
mutagenic call (Test System: AMES SALMONELLA TYPHIMURIUM, Strain/Indicator: TA1537, Metabolic Activation: RAT, LIVER, S-9, AROCLOR 1254, Method: PREINCUBATION): inactive; negative
mutagenic call [12]: inactive; negative
mutagenic call [13]: inactive; negative
mutagenic call (Test System: AMES SALMONELLA TYPHIMURIUM, Strain/Indicator: TA1538, Metabolic Activation: NONE, Method: STANDARD PLATE): inactive; negative
mutagenic call (Test System: AMES SALMONELLA TYPHIMURIUM, Strain/Indicator: TA1538, Metabolic Activation: RAT, LIVER, S-9, AROCLOR 1254, Method: PREINCUBATION): inactive; negative
mutagenic call (Test System: AMES SALMONELLA TYPHIMURIUM, Strain/Indicator: TA1538, Metabolic Activation: RAT, LIVER, S-9, AROCLOR 1254, Method: STANDARD PLATE): inactive; negative
mutagenic call (Test System: CHINESE HAMSTER OVARY, Strain/Indicator: CHO (HGPRT), Metabolic Activation: NONE): inactive; negative
mutagenic call (Test System: CHINESE HAMSTER OVARY, Strain/Indicator: CHO (HGPRT), Metabolic Activation: RAT, LIVER, S-9, AROCLOR 1254): inactive; negative
mutagenic call (Test System: CHINESE HAMSTER OVARY, Strain/Indicator: CHO-K1-BH4 (HGPRT)/6-THIOGUANINE, Metabolic Activation: NONE, Method: SUSPENSION/PLATE): inactive; negative
mutagenic call (Test System: CHINESE HAMSTER OVARY, Strain/Indicator: CHO-K1-BH4 (HGPRT)/6-THIOGUANINE, Metabolic Activation: RAT, LIVER, S-9, AROCLOR 1254, Method: SUSPENSION/PLATE): inactive; negative
mutagenic call (Test System: CHO/HGPRT, Strain/Indicator: CHO-K1-BH4, Metabolic Activation: NONE, Method: SUSPENSION/PLATE): inactive; negative
mutagenic call (Test System: CHO/HGPRT, Strain/Indicator: CHO-K1-BH4, Metabolic Activation: RAT, LIVER, S-9, AROCLOR 1254, Method: SUSPENSION/PLATE): inactive; negative
mutagenic call (Test System: UDS RAT PRIMARY HEPATOCYTES, Strain/Indicator: THY INCORP, Metabolic Activation: NONE, Method: IN VIVO-IN VITRO): inactive; negative
mutagenic call (Test System: UDS RODENT HEPATOCYTES, Strain/Indicator: THY INCORP (NON-S-PHASE), Metabolic Activation: NONE): inactive; negative

CC(C)c1ccccc1OP(=O)(Oc1ccccc1)Oc1ccccc1
mutagenic call (Test System: AMES SALMONELLA TYPHIMURIUM, Strain/Indicator: TA97, Metabolic Activation: HAMSTER, LIVER, S-9, AROCLOR 1254 (10 OR 30%), Method: PREINCUBATION): inactive; negative
mutagenic call (Test System: AMES SALMONELLA TYPHIMURIUM, Strain/Indicator: TA97, Metabolic Activation: NONE, Method: PREINCUBATION): inactive; negative
mutagenic call (Test System: AMES SALMONELLA TYPHIMURIUM, Strain/Indicator: TA97, Metabolic Activation: RAT, LIVER, S-9, AROCLOR 1254 (10 OR 30%), Method: PREINCUBATION): inactive; negative
mutagenic call (Test System: AMES SALMONELLA TYPHIMURIUM, Strain/Indicator: TA98, Metabolic Activation: HAMSTER, LIVER, S-9, AROCLOR 1254 (10 OR 30%), Method: PREINCUBATION): inactive; negative
mutagenic call [1]: inactive; negative
mutagenic call (Test System: AMES SALMONELLA TYPHIMURIUM, Strain/Indicator: TA98, Metabolic Activation: RAT, LIVER, S-9, AROCLOR 1254 (10 OR 30%), Method: PREINCUBATION): inactive; negative
mutagenic call (Test System: AMES SALMONELLA TYPHIMURIUM, Strain/Indicator: TA100, Metabolic Activation: HAMSTER, LIVER, S-9, AROCLOR 1254 (10 OR 30%), Method: PREINCUBATION): inactive; negative
mutagenic call [4]: inactive; negative
mutagenic call (Test System: AMES SALMONELLA TYPHIMURIUM, Strain/Indicator: TA100, Metabolic Activation: RAT, LIVER, S-9, AROCLOR 1254 (10 OR 30%), Method: PREINCUBATION): inactive; negative
mutagenic call (Test System: AMES SALMONELLA TYPHIMURIUM, Strain/Indicator: TA1535, Metabolic Activation: HAMSTER, LIVER, S-9, AROCLOR 1254 (10 OR 30%), Method: PREINCUBATION): inactive; negative
mutagenic call [7]: inactive; negative
mutagenic call (Test System: AMES SALMONELLA TYPHIMURIUM, Strain/Indicator: TA1535, Metabolic Activation: RAT, LIVER, S-9, AROCLOR 1254 (10 OR 30%), Method: PREINCUBATION): inactive; negative

NC(N)=O
mutagenic call [1]: inactive; negative
mutagenic call (Test System: AMES SALMONELLA TYPHIMURIUM, Strain/Indicator: TA98, Metabolic Activation: RAT, LIVER, S-9, KC 500, Method: PREINCUBATION): inactive; negative
mutagenic call [4]: inactive; negative
mutagenic call (Test System: AMES SALMONELLA TYPHIMURIUM, Strain/Indicator: TA100, Metabolic Activation: RAT, LIVER, S-9, KC 500, Method: PREINCUBATION): inactive; negative
mutagenic call [7]: inactive; negative
mutagenic call (Test System: AMES SALMONELLA TYPHIMURIUM, Strain/Indicator: TA1535, Metabolic Activation: RAT, LIVER, S-9, KC 500, Method: PREINCUBATION): inactive; negative
mutagenic call [10]: inactive; negative
mutagenic call (Test System: AMES SALMONELLA TYPHIMURIUM, Strain/Indicator: TA1537, Metabolic Activation: RAT, LIVER, S-9, KC 500, Method: PREINCUBATION): inactive; negative
mutagenic call [13]: inactive; negative
mutagenic call (Test System: AMES SALMONELLA TYPHIMURIUM, Strain/Indicator: TA1538, Metabolic Activation: RAT, LIVER, S-9, KC 500, Method: PREINCUBATION): inactive; negative
mutagenic call (Test System: E. COLI, Strain/Indicator: WP2 UVRA, Metabolic Activation: NONE, Method: PREINCUBATION): inactive; negative
mutagenic call (Test System: E. COLI, Strain/Indicator: WP2 UVRA, Metabolic Activation: RAT, LIVER, S-9, KC 500, Method: PREINCUBATION): inactive; negative
mutagenic call (Test System: MOUSE LYMPHOMA, Strain/Indicator: L5178Y (TK+/TK-), Metabolic Activation: NONE, Method: SUSPENSION/PLATE): active; positive

Cc1cccc2ccc([N+](=O)[O-])cc12
mutagenic call [1]: active; positive

CCN1CCN=N1
mutagenic call [8]: active; positive

CCOC(=O)c1cccc2cccnc12
mutagenic call [2]: inactive; negative
mutagenic call [3]: inactive; negative
mutagenic call [5]: inactive; negative
mutagenic call [6]: inactive; negative
mutagenic call [8]: inactive; negative
mutagenic call [9]: inactive; negative
mutagenic call [11]: inactive; negative
mutagenic call [12]: inactive; negative
